Molecules are shown by their SMILES. A value given as a limit tells only on which side of the number the result lay.

For the experiment, the target named is Phosphatidylinositol 4,5-bisphosphate 3-kinase catalytic subunit alpha isoform (Homo sapiens, UniProt P42336). Nature of the experiment: Enzyme Assay.
Chain of Phosphatidylinositol 4,5-bisphosphate 3-kinase catalytic subunit alpha isoform (P42336 whole entry, canonical isoform): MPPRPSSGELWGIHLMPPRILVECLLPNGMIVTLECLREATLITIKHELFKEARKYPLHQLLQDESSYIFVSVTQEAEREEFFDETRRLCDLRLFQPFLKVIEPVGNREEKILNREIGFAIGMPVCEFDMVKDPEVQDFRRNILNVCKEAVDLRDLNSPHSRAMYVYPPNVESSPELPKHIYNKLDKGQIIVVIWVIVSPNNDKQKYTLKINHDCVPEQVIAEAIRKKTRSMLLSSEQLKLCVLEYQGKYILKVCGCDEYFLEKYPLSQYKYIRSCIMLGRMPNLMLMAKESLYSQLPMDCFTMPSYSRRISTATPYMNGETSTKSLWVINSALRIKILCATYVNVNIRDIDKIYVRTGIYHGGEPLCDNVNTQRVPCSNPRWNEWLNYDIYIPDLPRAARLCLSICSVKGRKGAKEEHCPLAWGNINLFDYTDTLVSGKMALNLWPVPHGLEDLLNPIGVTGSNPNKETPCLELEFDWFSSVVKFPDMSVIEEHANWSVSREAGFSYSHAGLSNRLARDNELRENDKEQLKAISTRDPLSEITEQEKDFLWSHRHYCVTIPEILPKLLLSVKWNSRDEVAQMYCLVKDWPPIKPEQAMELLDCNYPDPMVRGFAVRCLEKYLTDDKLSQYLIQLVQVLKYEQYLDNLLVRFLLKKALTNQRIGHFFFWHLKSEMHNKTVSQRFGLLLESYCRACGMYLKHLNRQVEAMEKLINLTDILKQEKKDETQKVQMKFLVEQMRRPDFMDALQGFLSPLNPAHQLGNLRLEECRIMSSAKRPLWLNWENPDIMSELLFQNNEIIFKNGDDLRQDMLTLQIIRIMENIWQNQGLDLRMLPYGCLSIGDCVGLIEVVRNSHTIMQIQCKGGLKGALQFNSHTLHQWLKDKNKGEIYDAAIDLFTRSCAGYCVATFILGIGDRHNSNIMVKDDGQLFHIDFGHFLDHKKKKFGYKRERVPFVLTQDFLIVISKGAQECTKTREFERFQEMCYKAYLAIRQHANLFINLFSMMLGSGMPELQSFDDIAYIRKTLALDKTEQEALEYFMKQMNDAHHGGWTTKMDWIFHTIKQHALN
Excerpt: Inhibition of PI3 kinase by WmC20 derivatives causing a formation of covalent bond between WmC20 derivatives and the target protein.
As to `COC[C@H]1OC(=O)C(CSCC(NC(C)=O)C(=O)O)=C2C(=O)C(=O)C3=C([C@H](OC(C)=O)C[C@]4(C)C(=O)CCC34)[C@]21C` (some centres undefined) [WmC20-cys, 3], inhibition was half-maximal at 1140 nM (IC50).

Turning to `COC[C@H]1OC(=O)C(=CNCCCCC(NC(C)=O)C(=O)O)C2C(=O)C(=O)C3=C([C@H](OC(C)=O)C[C@]4(C)C(=O)CC[C@@H]34)[C@]21C` (some centres undefined) [WmC20-lys, 2], the IC50 is over 1000 nM. `COC[C@H]1OC(=O)C(=CN2CCCC2C(=O)O)C2C(=O)C(=O)C3=C([C@H](OC(C)=O)C[C@]4(C)C(=O)CC[C@@H]34)[C@]21C` (some centres undefined) [WmC20-pro, 1]: the concentration for half-maximal inhibition (IC50) turned out to be 68 nM. As to `COC[C@H]1OC(=O)C(=CN(C)CCCCCC(=O)O)C2C(=O)C(=O)C3=C([C@H](OC(C)=O)C[C@]4(C)C(=O)CC[C@@H]34)[C@]21C` (some centres undefined) [WmC20-NMeHA, 4], half-maximal inhibition (IC50) required 108 nM.

By IC50 is commonly meant the midpoint of a concentration-inhibition curve. Lower therefore signals higher potency.
